Results on eight molecules are retold here after patent publication US9018213B2, “Alicyclic[c] benzopyrone derivatives and uses thereof” (Huazhong University of Science & Technology, priority 2011, dated 2015).

By ED50 is commonly meant the dose that gives a 50% effect, or the effect in half of the subjects. As a reminder, the IC50 is the concentration that inhibits the measured activity by half. High values mean lower potency, low ones higher potency. The term LD50 denotes the dose expected to kill half of the subjects tested.

In data set [1] the test system is KM mice. In words: Apomorphine induced clambering assay of mice. The format is in vivo. The conditions noted are these: for ED50: Mus musculus, read-out: apomorphine induced clambering ED50; for Scoring (value), apomorphine induced clambering: x ± s, n = 10. How it is done:
Apomorphine Induced Clambering Assay of Mice
Healthy KM mice (male, with body weight of 18-22 g) were provided by Qinglongshan Animal Cultivation Center, Nanjing.
Apomorphine provided by Sigma Company was dissolved in 0.9% NaCl (containing 0.1% vitamin C) before use, and was freshly formulated before use.
Vitamin C, F20061113, was provided by Sinopharm Chemical Reagent Co. Ltd.
Sodium chloride injection, H32026305, was provided by Xuzhou No. 5 Pharmaceutical Factory Co. Ltd.
Instruments: self-made clambering cage, chronograph.
Procedures: apomorphine induced clambering assay of mice
After 5 min of adaptation, the behaviors of the mice at 10-11, 20-21, and 30-31 min after the injection of apomorphine were observed and scored. Scoring criteria: 4 paws on the floor was scored as 0; 2 forepaws on the cage was scored as 1; and 4 paws on the cage was scored as 2.

The target of the next data set is 5HT1A receptor (Rattus norvegicus (Rat), UniProt P19327). In words: 5HT1A receptor binding assay (3H-8-OH-DPAT). The method, then:
Preparation of 5HT1A Membrane
Incubation at 37° C. was conducted for 10 min, the weight of the tubes were adjusted using a balance after incubation. […] Centrifugation was conducted and repeated 3 times.
Materials for the Receptor Binding Assay

The target of the next data set is 5HT2A receptor (Rattus norvegicus (Rat), UniProt P14842). In words: 5HT2A receptor binding assay ([3H]-Ketanserin).
A further data set addresses 5HT2C receptor (Rattus norvegicus (Rat), UniProt P08909). In words: 5HT2C receptor binding assay ([3H]-mesulergine).
The next data set concerns the target D3 receptor (Homo sapiens (Human), UniProt P35462). In words: D3 receptor competitive binding assay ([3H]-Spiperone, HEK-293 cells). The method, then: After the cells were centrifuged at 1000 rpm for 5 min, the supernatant was discarded, and the cell pellet was collected and stored in a -20° C. fridge for reservation. It was re-suspended with Tris-Cl (pH 7.4) in the assay. […] Tris was divided into aliquots by […] Technology Inc. Procedures Competitive binding test for receptors: 20 μl of each of the test compounds and 20 μl of the radioactive ligand together with 160 μl of the receptor proteins were added into the reaction tubes, and the final concentrations of the test compound and the positive drug were all 10 μmol/L. After 50 min of incubation in 30° C. water bath, the tubes were immediately moved to ice bath to terminate the reactions. GF/C glass fiber filter papers were used for rapid sucking filtration on a Millipore cell sample collector, elution buffer (50 mM Tris-HCl, PH 7.4) was applied for 3 ml×3 times, and microwave was applied for 4-5 min for drying. The filter papers were moved into 0.5 ml centrifuge tubes, and 500 μl of lipid-soluble scintillation solution was added. The tubes were allowed to stand still for over 30 min in dark, and the intensities of radioactivity were measured by a counter.

The nature of a further data set: Catalepsy assay. The conditions noted are these: both, Kunming (KM), mouse, po. The method, then: Healthy mice of Kunming breed (with half male and half female, (22±2) g) were provided by Qinglongshan Animal Cultivation Center, Nanjing.
The durations for the mice to maintain the posture with the two forepaws on the bars were recorded, and 30 s of spasticity without moving was considered as the positive response. In the case the forepaws of the mice were not put down persistently, the observation was terminated at 60 s. The numbers of animals with positive response in each of the compound dosage groups were counted.

Another data set is described as follows: in vivo. The conditions noted are these: both sexes, mouse, in vivo, po. The method, then:
(§1) Limit Test of Sequential Assay
(§2) KM mice (half male and half female) were randomly divided into several groups (with 2-5 mice in each group), which were respectively the 2000 mg/kg groups for each compound, and the solvent group. 0.2 ml/10 g were administered intragastrically. The death of the animals in 3 days were observed. (In the case 3 or more animals survived in 3 days without notable abnormity in their life states, the observation was continued until the assay was completed in 7 days. In the case 3 or more animals died in 3 days, the median lethal dose method was used to determine the LD50).
(§3) Pre-Assay for the Median Lethal Dose Method
(§4) 0.2 ml/10 g were administered intragastrically, and the death of the animals in 1-3 days were observed.

The next data set deals with mice of Kunming breed. In words: MK-801 induced high activity. As to conditions: po, mice; for ED50: Mus musculus. It is filed as in vivo. The method, then: Healthy mice of Kunming breed (with half male and half female, (20±2) g) were provided by Qinglongshan Animal Cultivation Center, Nanjing.
Ascorbic acid was provided by Sinopharm Chemical Reagent Co. Ltd.
Tween 80, with the concentration of 10%.
Subsequently, the spontaneous activities of the mice of each group in 90 min were measured.

Another data set concerns the target D2 receptor (Rattus norvegicus (Rat), UniProt P61169). In words: D2 receptor inhibition binding assay (3H-Spiperone).
Data set [2] relates to KM mice. In words: in vivo. As to conditions: po, mice, single intragastric administration. How it is done: as §1, §2, §3, §4
[3] abbreviates: mice, single intragastric administration, read-out: LD50.

Structures are written as SMILES. Where two headings read alike, the source gives them in different places. Some results are limits rather than exact numbers.

Sequence of 5HT1A receptor (P19327 whole entry): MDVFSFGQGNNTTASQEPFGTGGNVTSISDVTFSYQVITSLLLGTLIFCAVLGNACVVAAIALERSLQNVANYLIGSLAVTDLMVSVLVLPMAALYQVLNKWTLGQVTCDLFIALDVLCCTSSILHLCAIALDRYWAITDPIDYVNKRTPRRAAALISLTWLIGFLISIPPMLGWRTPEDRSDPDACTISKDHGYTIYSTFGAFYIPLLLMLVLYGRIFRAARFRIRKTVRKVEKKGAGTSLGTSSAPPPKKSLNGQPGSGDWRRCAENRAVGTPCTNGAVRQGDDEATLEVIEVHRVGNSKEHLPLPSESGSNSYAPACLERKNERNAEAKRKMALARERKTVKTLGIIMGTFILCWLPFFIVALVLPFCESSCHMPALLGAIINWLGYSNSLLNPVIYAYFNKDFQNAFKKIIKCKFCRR
Sequence of 5HT2A receptor (P14842 whole entry): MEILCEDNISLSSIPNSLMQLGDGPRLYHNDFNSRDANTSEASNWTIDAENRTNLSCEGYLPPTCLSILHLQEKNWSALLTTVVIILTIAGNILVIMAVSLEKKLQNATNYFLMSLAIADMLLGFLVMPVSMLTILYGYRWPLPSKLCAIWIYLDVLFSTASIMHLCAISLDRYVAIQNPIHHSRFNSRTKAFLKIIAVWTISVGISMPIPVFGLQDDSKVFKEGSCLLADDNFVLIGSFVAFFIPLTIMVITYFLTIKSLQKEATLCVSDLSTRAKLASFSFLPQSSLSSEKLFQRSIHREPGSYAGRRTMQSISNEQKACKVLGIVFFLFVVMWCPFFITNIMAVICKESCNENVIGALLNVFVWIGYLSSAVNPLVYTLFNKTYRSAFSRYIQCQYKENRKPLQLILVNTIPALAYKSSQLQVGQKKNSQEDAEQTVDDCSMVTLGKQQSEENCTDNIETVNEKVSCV
Sequence of 5HT2C receptor (P08909 33-460): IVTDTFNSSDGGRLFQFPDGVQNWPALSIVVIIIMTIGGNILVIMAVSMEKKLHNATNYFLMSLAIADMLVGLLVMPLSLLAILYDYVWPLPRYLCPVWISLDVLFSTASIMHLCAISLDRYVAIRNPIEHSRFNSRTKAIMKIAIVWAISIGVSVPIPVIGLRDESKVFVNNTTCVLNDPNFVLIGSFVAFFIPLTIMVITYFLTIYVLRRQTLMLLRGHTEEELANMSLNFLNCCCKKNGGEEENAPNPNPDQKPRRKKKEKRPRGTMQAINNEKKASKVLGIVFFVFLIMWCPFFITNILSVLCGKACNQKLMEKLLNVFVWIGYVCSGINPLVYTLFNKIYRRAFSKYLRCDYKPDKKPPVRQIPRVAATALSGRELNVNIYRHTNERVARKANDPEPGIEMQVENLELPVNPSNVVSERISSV
Sequence of D3 receptor (P35462 whole entry): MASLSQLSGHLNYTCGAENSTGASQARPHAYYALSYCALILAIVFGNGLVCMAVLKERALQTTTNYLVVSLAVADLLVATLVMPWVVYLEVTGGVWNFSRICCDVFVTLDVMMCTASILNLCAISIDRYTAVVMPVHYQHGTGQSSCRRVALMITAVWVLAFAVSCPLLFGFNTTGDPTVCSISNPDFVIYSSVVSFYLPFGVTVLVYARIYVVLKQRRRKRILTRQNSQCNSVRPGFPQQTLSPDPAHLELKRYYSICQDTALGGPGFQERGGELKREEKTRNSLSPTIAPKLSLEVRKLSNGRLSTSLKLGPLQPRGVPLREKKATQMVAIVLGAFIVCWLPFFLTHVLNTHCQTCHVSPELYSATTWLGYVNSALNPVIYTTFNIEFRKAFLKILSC
Sequence of D2 receptor (P61169 whole entry): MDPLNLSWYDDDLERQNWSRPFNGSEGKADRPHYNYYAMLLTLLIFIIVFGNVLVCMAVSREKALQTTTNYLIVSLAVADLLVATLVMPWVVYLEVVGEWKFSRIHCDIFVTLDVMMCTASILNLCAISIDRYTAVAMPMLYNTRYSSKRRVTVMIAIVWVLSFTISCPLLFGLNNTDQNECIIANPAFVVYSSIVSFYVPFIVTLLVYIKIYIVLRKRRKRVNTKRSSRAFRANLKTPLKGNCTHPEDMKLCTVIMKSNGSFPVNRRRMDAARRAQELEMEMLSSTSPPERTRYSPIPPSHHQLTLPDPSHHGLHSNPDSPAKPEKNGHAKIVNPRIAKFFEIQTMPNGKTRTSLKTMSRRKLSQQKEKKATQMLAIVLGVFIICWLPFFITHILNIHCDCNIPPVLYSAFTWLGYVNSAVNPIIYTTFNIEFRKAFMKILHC
Method for D2 receptor: Rats were sacrificed by cervical dislocation on ice. Cerebral cortex was rapidly taken, and 2 cerebral cortexes were combined into a centrifuge tube, to which 3 ml of buffer (0.05 M Tris-HCl buffer, containing NaCl 120 mM, KCl 5 mM, MgCl2 1 mM, CaCl2 1 mM) was added, homogenization was conducted for 3-4 s at level 4 for four times, and then 5 ml of buffer was then added. The weight of the homogenized tubes were adjusted using a balance, and centrifugation was conducted at 12000 r, 4° C. for 20 min. The supernatant was discarded, and 3 ml of B solution was added. Vortex mixer was used for blending, and then 5 ml of B solution was added. Centrifugation was conducted and repeated 3 times. After the centrifugations, the supernatant was discarded, and the pellets were stored at −80° C. for future use.
Beckman LS-6500 Multi-function Liquid Scintillation Counter was used.
(1) The prepared membrane was first applied with appropriate amount of homogenized liquid, and homogenizer was used for evenly dispersing. 15 tubes were mixed into a 100 ml container, and appropriate amount of homogenized liquid was added to give 50 ml of membrane suspension, which was reserved for future use.
(2) 100 μL of membrane preparation and 100 μL of buffer were added into each reaction tube.
(3) 100 μL of homogenized liquid was added into the total binding tube (TB), 100 μL of Butaclamol (final concentration 10^−5 M) was added into the non-specific binding tube (NB), and 100 μL of the test compound (final concentration 10^−5 M) was added into the specific binding tube (SB) for each compound.
(5) Each of the reaction tubes was incubated at 37° C. for 20 min. After the reaction was completed, the bound ligands were rapidly filtered under reduced pressure, and the ice-chilled assay buffer was used for adequate washing. The filter was taken out and put into a 3 ml scintillation vial, and 2 ml of toluene scintillation solution was added and blended.
(6) The scintillation vials were put into Liquid Scintillation Counter for counting. Inhibitory rate (I %)=(Total binding tube cpm−compound cpm)/(Total binding tube cpm−non-specific binding tube cpm)×100%
Each assay for the compounds was conducted in duplicate.

As to `O=c1oc2c(Cl)c(OCCCCN3CCN(c4nsc5ccccc45)CC3)ccc2c2c1CCC2` [Compound 14, 7-{4-[4-(3-(1,2-benzisothiazole)-1-piperazinyl)-n-butoxy]}-6-chloro-2,3-dihydro-1H-cyclopenteno[c]benzopyran-4-one], the ED50 in the data set on KM mice [1] (po, mice) was found to be 0.25 mg/kg; in the data set “Catalepsy assay” (in vivo) it was 189 mg/kg; in the data set on mice of Kunming breed it was 0.82 mg/kg. Moreover, the “Scoring (value), apomorphine induced clambering” value (“Scoring (value)” for short) in the data set with KM mice [1] (dosage 0.1 mg/kg) was 5.30 ± 1.25; with KM mice [1] (dosage 0.3 mg/kg), 2.10 ± 1.85; in the data set on KM mice [1] (dosage 1 mg/kg) it was 1.25 ± 1.75; in the data set with KM mice [1] (dosage 3 mg/kg), 0.25 ± 0.71; in the data set on KM mice [1] (dosage 10 mg/kg) it was 0.80 ± 1.40. Moreover, the IC50 on 5HT1A receptor is 0.86 nM; at 5HT2A receptor it was 0.82 nM; on 5HT2C receptor, 1490 nM; at D3 receptor, 15.1 nM; on D2 receptor, 10.1 nM. In addition, the LD50 in “in vivo” (setting [3]) was greater than 2000 mg/kg.

Turning to `O=c1oc2c(Cl)c(OCCCCN3CCC(c4noc5cc(F)ccc45)CC3)ccc2c2c1CCC2` [Compound 15, 7-{4-[4-(3-(6-fluoro-benzisoxazole)-1-piperidyl)-butoxy]}-6-chloro-2,3-dihydro-1H-cyclopenteno[c]benzopyran-4-one], the ED50 in the data set with KM mice [1] (po, mice) amounted to 0.56 mg/kg; in the data set “Catalepsy assay” (in vivo) it was 98.9 mg/kg; with mice of Kunming breed it was 1.25 mg/kg. The “Scoring (value)” value in the data set with KM mice [1] (dosage 0.1 mg/kg) came to 4.75 ± 1.58; in the data set on KM mice [1] (dosage 0.3 mg/kg), 3.38 ± 0.92; in the data set with KM mice [1] (dosage 1 mg/kg), 3.00 ± 1.60; with KM mice [1] (dosage 3 mg/kg), 0.50 ± 0.76. In addition, the IC50 at 5HT1A receptor is 0.73 nM; at 5HT2A receptor, 0.29 nM; on 5HT2C receptor, 1890 nM; at D3 receptor, 8.6 nM; at D2 receptor, 8.1 nM. In “in vivo” (setting [3]), the 50% lethal dose (LD50) is greater than 2000 mg/kg.

For `O=C(CCCN1CCC(O)(c2ccc(Cl)cc2)CC1)c1ccc(F)cc1` [haloperidol], the ED50 was found to be 0.1 mg/kg with KM mice [1] (po, mice) and 0.44 mg/kg in the data set “Catalepsy assay”. The “Scoring (value)” value with KM mice [1] (dosage 0.1 mg/kg) stood at 4.50 ± 1.78; in the data set on KM mice [1] (dosage 0.13 mg/kg), 1.50 ± 1.27; in the data set on KM mice [1] (dosage 0.174 mg/kg), 2.20 ± 1.69; with KM mice [1] (dosage 0.23 mg/kg), 0.80 ± 0.79; in the data set on KM mice [1] (dosage 0.3 mg/kg) it was 0.70 ± 0.82; in the data set on KM mice [1] (dosage 1 mg/kg), 0.60 ± 1.58. Also, the LD50 in the data set with KM mice [2] and in “in vivo” (setting [3]) was 20 mg/kg each time. The “MK-801 induced high activity ED50” value in the data set on mice of Kunming breed was determined as 7.42 mg/kg.

In the case of `O=c1oc2cc(OCCCN3CCC(c4noc5cc(F)ccc45)CC3)ccc2c2c1CCC2` [Compound 5, 7-{3-[4-(3-(6-fluoro-benzisoxazole)-1-piperidyl)-n-propoxy]}-2,3-dihydro-1H-cyclopenteno[c]benzopyran-4-one], the ED50 in the data set with KM mice [1] (po, mice) amounted to 0.68 mg/kg; in “Catalepsy assay” (in vivo), 168 mg/kg; with mice of Kunming breed it was 0.35 mg/kg. The “Scoring (value)” value in the data set with KM mice [1] (dosage 0.1 mg/kg) amounted to 4.60 ± 2.07; with KM mice [1] (dosage 0.3 mg/kg) it was 3.00 ± 1.94; in the data set with KM mice [1] (dosage 1 mg/kg), 0.90 ± 1.20; with KM mice [1] (dosage 3 mg/kg), 0.20 ± 0.63. Besides, the concentration for half-maximal inhibition (IC50) on 5HT1A receptor was found to be 0.03 nM; on 5HT2A receptor, 0.56 nM; on 5HT2C receptor, 1160 nM; on D3 receptor, 8.9 nM; at D2 receptor it was 5.6 nM. Further, in the data set “in vivo” (setting [3]), the LD50 is greater than 2000 mg/kg.

On to `CN1CCN(C2=Nc3cc(Cl)ccc3Nc3ccccc32)CC1` [clozapine], for which the “Scoring (value)” value with KM mice [1] (dosage 10 mg/kg) is 5.50 ± 0.76; with KM mice [1] (dosage 17.4 mg/kg), 4.60 ± 2.07; in the data set with KM mice [1] (dosage 23 mg/kg), 3.70 ± 2.21; in the data set on KM mice [1] (dosage 30 mg/kg), 0.60 ± 1.07. Besides, the “apomorphine induced clambering ED50” value with KM mice [1] (po, mice) amounted to 17.92 mg/kg. In addition, the ED50 in the data set “Catalepsy assay” is greater than 50 mg/kg. In addition, the LD50 with KM mice [2] and in the data set “in vivo” (setting [3]) was 150 mg/kg each time. Also, in the data set with mice of Kunming breed, the “MK-801 induced high activity ED50” value is given as 2.28 mg/kg.

On to `O=C1Cc2cc(CCN3CCN(c4nsc5ccccc45)CC3)c(Cl)cc2N1` [ziprasidone], for which the ED50 with KM mice [1] (po, mice) turned out to be 0.37 mg/kg; in “Catalepsy assay”, 30.4 mg/kg; in the data set on mice of Kunming breed, 0.56 mg/kg. The “Scoring (value)” value is 4.40 ± 2.01 in the data set with KM mice [1] (dosage 0.3 mg/kg), 3.80 ± 1.40 in the data set on KM mice [1] (dosage 1 mg/kg), 0.70 ± 1.16 in the data set on KM mice [1] (dosage 3 mg/kg) and 0.40 ± 0.84 with KM mice [1] (dosage 10 mg/kg). For the same molecule, the LD50 in the data set “in vivo” (setting [3]) is greater than 2000 mg/kg.

On to `O=C1CCc2ccc(OCCCCN3CCN(c4cccc(Cl)c4Cl)CC3)cc2N1` [aripiprazole], for which the ED50 in the data set with KM mice [1] (po, mice) was 0.66 mg/kg; in “Catalepsy assay” it was 2.4 mg/kg; with mice of Kunming breed it was 0.12 mg/kg. Besides, the “Scoring (value)” value was determined as 4.50 ± 1.51 with KM mice [1] (dosage 0.3 mg/kg), 1.5 ± 1.08 in the data set with KM mice [1] (dosage 1 mg/kg), 2.30 ± 1.57 with KM mice [1] (dosage 3 mg/kg) and 0.20 ± 0.42 in the data set on KM mice [1] (dosage 10 mg/kg). Moreover, the LD50 in the data set “in vivo” (KM) came to 93 mg/kg.

`COc1ccccc1N1CCN(CCCCOc2ccc3c4c(c(=O)oc3c2)CCCC4)CC1` [Compound 19, 3-{4-[4-(2-methoxyphenyl)piperazin-1-yl]-butoxy}-7,8,9,10-tetrahydrobenzo[c]benzopyran-6-one]: the ED50 in the data set on KM mice [1] (po, mice) turned out to be 0.15 mg/kg; in “Catalepsy assay” (in vivo), 156 mg/kg; in the data set on mice of Kunming breed, 2.35 mg/kg. In addition, the “Scoring (value)” value in the data set with KM mice [1] (dosage 0.3 mg/kg) was determined as 4.90 ± 1.10; in the data set on KM mice [1] (dosage 0.52 mg/kg), 0.75 ± 1.04; with KM mice [1] (dosage 1 mg/kg) it was 1.50 ± 1.20; in the data set on KM mice [1] (dosage 3 mg/kg), 0.40 ± 0.97. The IC50 on 5HT1A receptor is 4.2 nM; on 5HT2A receptor, 1.8 nM; at 5HT2C receptor, 1120 nM; on D3 receptor, 13.2 nM; on D2 receptor, 3.6 nM. In addition, in “in vivo” (setting [3]), the LD50 was greater than 2000 mg/kg.
